ID50 data for 21 compounds are collected here from ChEMBL document CHEMBL1126261, “Synthesis and antimuscarinic properties of some N-substituted 5-(aminomethyl)-3,3-diphenyl-2(3H)-furanones” (J Med Chem, 1992).

Where “and” joins values, the source holds several entries; their conditions need not be identical. Equal entries are not always repeated. A value given as a limit tells only on which side of the number the result lay.

In experiment [1] the target is Muscarinic acetylcholine receptor M3 (Cavia porcellus) (UniProt Q8VH26). As to conditions: Urine.
Description: Urinary bladder contraction ability in guinea pig by intravenous dose
The target in experiment [2] is Muscarinic acetylcholine receptor (Homo sapiens) (UniProt P20309+P08173+P11229+P08172+P08912).
Experiment [3] has as its target Muscarinic acetylcholine receptor M3 (Cavia porcellus) (UniProt Q8VH26). As to conditions: Urinary bladder.
Description: The compound was tested for urinary bladder contraction ability in guinea pig.

Chain of Muscarinic acetylcholine receptor M3 (Cavia porcellus) (Q8VH26 1-587): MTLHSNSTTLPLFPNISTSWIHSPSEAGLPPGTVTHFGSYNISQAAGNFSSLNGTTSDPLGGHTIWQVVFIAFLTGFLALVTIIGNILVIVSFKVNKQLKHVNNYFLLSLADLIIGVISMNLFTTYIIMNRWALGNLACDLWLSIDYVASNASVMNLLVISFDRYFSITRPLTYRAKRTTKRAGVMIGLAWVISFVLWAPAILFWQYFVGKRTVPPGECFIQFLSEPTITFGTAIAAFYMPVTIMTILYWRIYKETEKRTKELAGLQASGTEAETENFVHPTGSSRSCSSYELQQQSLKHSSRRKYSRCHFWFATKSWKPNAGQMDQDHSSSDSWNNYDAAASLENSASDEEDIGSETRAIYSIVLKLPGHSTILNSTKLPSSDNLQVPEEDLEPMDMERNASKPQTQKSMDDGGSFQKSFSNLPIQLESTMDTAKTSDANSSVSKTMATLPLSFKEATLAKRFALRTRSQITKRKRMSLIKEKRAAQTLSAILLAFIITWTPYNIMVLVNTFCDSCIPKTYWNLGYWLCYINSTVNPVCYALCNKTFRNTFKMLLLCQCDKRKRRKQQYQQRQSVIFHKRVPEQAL

`CCc1nccn1C[C@H]1CC(c2ccccc2)(c2ccccc2)C(=O)O1`: the ID50 stood at 1.3 mg/kg in experiment [1] and 5.3 mg/kg in experiment [2].
`O=C1OC(Cn2cccn2)CC1(c1ccccc1)c1ccccc1` (stereo not given): the values for the ID50 in experiment [3] and in experiment [2] were greater than 10 mg/kg and 3.8 mg/kg, respectively.
On to `CCCc1n(CC2CC(c3ccccc3)(c3ccccc3)C(=O)O2)cc[n+]1C` (stereo not given), for which the ID50 in experiment [3] came to 0.9 mg/kg; in experiment [2], 0.54 mg/kg.
Regarding `Cc1nccn1CC1CC(c2ccccc2)(c2ccccc2)C(=O)O1` (stereo not given), the ID50 in experiment [3] and in experiment [2] was 29 mg/kg in each case.
Consider `CCc1n(CC2CC(c3ccccc3)(c3ccccc3)C(=O)O2)cc[n+]1C` (stereo not given), for which the ID50 in experiment [1] was 0.27 mg/kg; in experiment [2], 0.67 mg/kg.
Turning to `CN(C)CC1CC(c2ccccc2)(c2ccccc2)C(=O)O1` (stereo not given), the ID50 was greater than 10 mg/kg in experiment [1] and 61.6 mg/kg in experiment [2].
With `Cc1ccc[n+]2ccn(CC3CC(c4ccccc4)(c4ccccc4)C(=O)O3)c12` (stereo not given), the figures for the ID50 in experiment [1] and in experiment [2] were 1.7 mg/kg and 4.42 mg/kg, respectively.
Turning to `O=C1OC(Cn2cc[n+]3c2CCC3)CC1(c1ccccc1)c1ccccc1` (stereo not given), the ID50 in experiment [3] was 2.1 mg/kg; in experiment [2] it was 5.5 mg/kg.
With `C[n+]1ccn(CC2CC(c3ccccc3)(c3ccccc3)C(=O)O2)c1C(C)(C)C` (stereo not given), the ID50 in experiment [3] is 0.28 mg/kg; in experiment [2], 0.29 mg/kg.
For `CC(C)(C)c1nccn1CC1CC(c2ccccc2)(c2ccccc2)C(=O)O1` (stereo not given), the ID50 is 1.3 mg/kg in experiment [3] and 0.74 mg/kg in experiment [2].
As to `CC(C)c1nccn1C[C@H]1CC(c2ccccc2)(c2ccccc2)C(=O)O1`, the ID50 is 1.9 mg/kg in experiment [3] and 167 mg/kg in experiment [2].
On to `CC(C)c1n(CC2CC(c3ccccc3)(c3ccccc3)C(=O)O2)cc[n+]1C` (stereo not given), for which the ID50 turned out to be 0.03 mg/kg in experiment [1] and 0.02 mg/kg in experiment [2].
In the same order, the values of `C[N+](C)(C)CC1CC(c2ccccc2)(c2ccccc2)C(=O)O1` (stereo not given) are 0.64 mg/kg and 4.6 mg/kg.
On to `CC(C)c1nccn1CC1CC(c2ccccc2)(c2ccccc2)C(=O)O1` (stereo in doubt; 44), for which the ID50 in experiment [3] is 30 mg/kg; in experiment [2] it was greater than 100 mg/kg.
As for `CCCc1nccn1CC1CC(c2ccccc2)(c2ccccc2)C(=O)O1` (stereo not given), the ID50 in experiment [3] is 12.5 mg/kg; in experiment [2] it was greater than 100 mg/kg.
For `CN1[C@@H]2CC[C@H]1C[C@@H](OC(=O)C(CO)c1ccccc1)C2` (stereo not given in full), the ID50 in experiment [3] worked out at 0.15 mg/kg.
Regarding `CC1CCC[n+]2ccn(CC3CC(c4ccccc4)(c4ccccc4)C(=O)O3)c21` (stereo not given), the ID50 in experiment [3] worked out at 0.045 mg/kg; in experiment [2] it was 0.12 mg/kg.
As for `CC(C)c1nccn1CC1CC(c2ccccc2)(c2ccccc2)C(=O)O1` (stereo in doubt; 22), the values for the ID50 in experiment [3] and in experiment [2] were 3.6 mg/kg and 152 mg/kg, respectively.
Consider `CCc1nccn1CC1CC(c2ccccc2)(c2ccccc2)C(=O)O1` (stereo not given), for which, in experiment [3], the ID50 was 20 mg/kg and 8.5 mg/kg.
Consider `O=C1OC(Cn2cc[n+]3ccccc23)CC1(c1ccccc1)c1ccccc1` (stereo not given), for which the ID50 in experiment [3] is 5.2 mg/kg; in experiment [2] it was 8 mg/kg.
With `CCN(CC)CC1CC(c2ccccc2)(c2ccccc2)C(=O)O1` (stereo not given), the ID50 in experiment [1] is 16.2 mg/kg; in experiment [2], greater than 100 mg/kg.
